Molecular target: T1, spCas9:gRNA complex (Streptococcus pyogenes serotype M1, UniProt Q99ZW2)
T1 construct: purchased New England Biolabs
Assay: in vitro DNA cleavage assay (agarose gel)
Type: biochemical
Experimental: The in vitro DNA cleavage assay was carried out as described by (Pawluk, N et al., 2016) with the following modifications. SpyCas9 (New England Biolabs) (5nM) was incubated with candidate compound (50∼500µM) for 15 min at 37°C in Cas9 nuclease buffer (New England Biolabs). Alt-R crRNA:tracrRNA (Integrated DNA Technologies) (6nM) was added later and incubated again for 15min at 37°C. Finally, target dsDNA (1nM) was added and incubated for 10 min at 37°C for the cleavage. The reaction was stopped by adding Proteinase K. The cleaved and un-cleaved fraction of target dsDNA were visualized after separation on a 1% agarose gel.
Control assays were performed in parallel, where the candidate compound was substituted with 5µM AcrIIA2, as positive control; either 5µM GFP protein or no protein (DMSO) as negative control; and phenolic Mannich base inhibitor, ZL006 (Sigma-Aldrich). The AcrIIA2 and GFP proteins were obtained from E. coli cells transformed with the AcrIIA2- and GFP-expression plasmids (see example 1.2 and 1.3).

[1] = ACM37 and pyrrolylthiazole analogues, 200µM or 500µM, Figure 4
[2] = biphenyl analogues, 80µM or 200µM, Figure 5

T1 sequence (Q99ZW2 whole entry, one chain of several): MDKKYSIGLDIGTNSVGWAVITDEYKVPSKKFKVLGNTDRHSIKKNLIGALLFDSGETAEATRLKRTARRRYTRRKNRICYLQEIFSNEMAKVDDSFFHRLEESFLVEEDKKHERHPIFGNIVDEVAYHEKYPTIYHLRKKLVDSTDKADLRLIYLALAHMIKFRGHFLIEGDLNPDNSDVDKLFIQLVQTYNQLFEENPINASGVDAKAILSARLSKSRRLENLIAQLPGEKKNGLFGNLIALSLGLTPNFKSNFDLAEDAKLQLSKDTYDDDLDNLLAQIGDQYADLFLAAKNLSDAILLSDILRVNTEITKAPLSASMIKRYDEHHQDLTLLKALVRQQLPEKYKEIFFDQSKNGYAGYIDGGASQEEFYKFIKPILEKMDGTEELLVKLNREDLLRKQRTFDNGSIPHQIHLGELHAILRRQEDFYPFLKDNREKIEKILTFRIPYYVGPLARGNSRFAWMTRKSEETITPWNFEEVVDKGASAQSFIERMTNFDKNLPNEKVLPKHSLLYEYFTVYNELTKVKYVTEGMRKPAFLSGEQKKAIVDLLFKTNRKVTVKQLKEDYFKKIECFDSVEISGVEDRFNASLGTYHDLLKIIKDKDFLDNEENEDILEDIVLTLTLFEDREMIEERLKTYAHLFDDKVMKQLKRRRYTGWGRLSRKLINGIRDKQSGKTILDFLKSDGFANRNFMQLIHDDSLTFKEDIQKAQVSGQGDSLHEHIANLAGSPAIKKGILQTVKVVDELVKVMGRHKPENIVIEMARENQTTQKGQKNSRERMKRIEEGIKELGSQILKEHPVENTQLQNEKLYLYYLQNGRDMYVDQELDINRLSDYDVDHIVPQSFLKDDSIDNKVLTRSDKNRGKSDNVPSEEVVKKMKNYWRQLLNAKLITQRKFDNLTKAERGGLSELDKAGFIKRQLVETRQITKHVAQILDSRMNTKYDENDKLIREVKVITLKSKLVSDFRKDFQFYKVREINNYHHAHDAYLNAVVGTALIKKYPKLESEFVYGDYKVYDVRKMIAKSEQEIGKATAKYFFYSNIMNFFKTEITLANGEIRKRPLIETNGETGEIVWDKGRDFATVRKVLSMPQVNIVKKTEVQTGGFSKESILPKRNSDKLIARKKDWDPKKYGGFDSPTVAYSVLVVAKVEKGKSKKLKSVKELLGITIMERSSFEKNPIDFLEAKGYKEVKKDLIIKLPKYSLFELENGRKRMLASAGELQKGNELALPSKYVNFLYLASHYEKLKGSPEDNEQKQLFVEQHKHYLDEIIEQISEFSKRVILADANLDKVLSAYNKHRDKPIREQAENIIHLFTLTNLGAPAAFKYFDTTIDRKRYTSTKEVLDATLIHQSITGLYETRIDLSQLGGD

| Structure (SMILES) | inhibitors of spCas9:gRNA mediated target DNA cleavage [1] | inhibitors of spCas9:gRNA mediated target DNA cleavage [2] | other results |
| --- | --- | --- | --- |
| Cc1cc(NS(=O)(=O)c2cc(-c3nc(C)c(C(=O)N4CCC(C)CC4)s3)n(C)c2C)no1 [ACM37, 1,2-Dimethyl-5-(4-methyl-5-(4-methylpiperidine-1-carbonyl)thiazol-2-yl)-N-(5-methylisoxazol-3-yl)-1H-pyrrole-3-sulfonamide] | most potent inhibitors | – | inhibitor of cleavage of a target DNA molecule by the spCas9:gRNA complex (re-screen of the 52 candidate compounds, 50∼500µM, Figure 3): most potent and specific inhibitor |
| Cc1cc(NS(=O)(=O)c2cc(-c3nc(C)c(C(=O)N4CCCCCC4)s3)n(C)c2C)no1 [ACM37-A10, 5-(5-(Azepane-1-carbonyl)-4-methylthiazol-2-yl)-1,2-dimethyl-N-(5-methylisoxazol-3-yl)-1H-pyrrole-3-sulfonamide] | most potent inhibitors | – | – |
| Cc1cc(NS(=O)(=O)c2cc(-c3nc(C)c(C(=O)N4CCC(C)CC4)s3)n(C)c2)no1 [ACM37-A13] | most potent inhibitors | – | – |
| Cc1cc(NS(=O)(=O)c2ccc(-c3cccc(C(=O)N4CCC(C)CC4)c3)cc2)no1 [ACM37-A17, N-(5-Methylisoxazol-3-yl)-3'-(4-methylpiperidine-1-carbonyl)-[1,1'-biphenyl]-4-sulfonamide] | – | inhibitors | – |
| CC1CCN(C(=O)c2cccc(-c3ccc(S(=O)(=O)Nc4ccon4)cc3)c2)CC1 [ACM37-A17a, N-(Isoxazol-3-yl)-3'-(4-methylpiperidine-1-carbonyl)-[1,1'-biphenyl]-4-sulfonamide] | – | inhibitors | – |
| CC1CCN(C(=O)c2cccc(-c3ccccc3)c2)CC1 [ACM37-A17c, [1,1'-Biphenyl]-3-yl(4-methylpiperidin-1-yl)methanone] | – | inhibitors | relative potency as inhibitor of spCas9:gRNA mediated target DNA cleavage (Figure 5, printed order: ACM37-A17c, then ACM37-A17, ACM37-A17p, ACM37-A17a, ACM37-A17n, ACM37-A17f): most potent |
| Cc1cc(NS(=O)(=O)c2ccc(-c3ccccc3)cc2)no1 [ACM37-A17f, N-(5-Methylisoxazol-3-yl)-[1,1'-biphenyl]-4-sulfonamide] | – | inhibitors | – |
| O=S(=O)(Nc1ccon1)c1ccc(-c2ccccc2)cc1 [ACM37-A17n, N-(Isoxazol-3-yl)-[1,1'-biphenyl]-4-sulfonamide] | – | inhibitors | – |
| Cc1cc(NS(=O)(=O)c2cccc(-c3ccccc3)c2)no1 [ACM37-A17p, N-(5-Methylisoxazol-3-yl)-[1,1'-biphenyl]-3-sulfonamide] | – | inhibitors | – |
| Cc1cc(NS(=O)(=O)c2cc(-c3nc(C)c(C(=O)N4CCCCC4)s3)n(C)c2C)no1 [ACM37-A19, 1,2-Dimethyl-5-(4-methyl-5-(piperidine-1-carbonyl)thiazol-2-yl)-N-(5-methylisoxazol-3-yl)-1H-pyrrole-3-sulfonamide] | most potent inhibitors | – | – |
| Cc1nc(-c2cc(S(=O)(=O)Nc3ccon3)cn2C)sc1C(=O)N1CCC(C)CC1 [ACM37-A23a, N-(isoxazol-3-yl)-1-methyl-5-(4-methyl-5-(4-methylpiperidine-1-carbonyl)thiazol-2-yl)-1H-pyrrole-3-sulfonamide] | most potent inhibitors | – | – |

Source: EP3831940A1, “SMALL MOLECULE INHIBITORS OF CRISPR-CAS ASSOCIATED ACTIVITY” (Danmarks Tekniske Universitet, priority 2019, dated 2021)
